Earlier results on one compound are cited in US20210268011A1, “AMPK ACTIVATING AGENT” (ORYZA OIL & FAT CHEMICAL CO., LTD., priority 2018, published 2021).

This data set relates to AMPK. Particulars: recent research, Non-patent Document 4; cited from earlier work.

On to `CN(C)C(=N)N=C(N)N` [metformin], for which the AMPK activation result is reported as “activated”.
